From patent US20230241083A1, “FORMULATION COMPRISING CANNABINOIDS” (CANNOVEX BV, priority 2020, published 2023)

Test: Stability study of THC in a receiver solution
Format: physicochemical
Conditions: receiver solution EtOH:H2O (50/50 vol); 3, 6, 8, 24, 30, 48 hours
From the text: FIG. 2: Stability study of THC in a receiver solution.

## CCCCCc1cc(O)c2c(c1)OC(C)(C)[C@@H]1CCC(C)=C[C@@H]21 [THC, Delta-9-tetrahydrocannabinol]
  THC concentration over time in receiver solution (stability): does not decay over time
